Results on one molecule are retold here after US9271991B2, “Trimegestone (TMG) for treatment of preterm birth” (Dignity Health, priority 2010, dated 2016).

“And” between values parts separate entries of the source, which are not always exact repeats. Equal values may be shown once. “Also recorded” adds a separate entry of the source.

Data set [1] has as its system pregnant guinea pigs (preterm delivery). The experiment in a line: PGE2-induced preterm delivery in pregnant guinea pigs. In kind it is in vivo, Hartley guinea pigs. The following applies: sacrifice day 48. From the text:
Pregnant guinea pigs, another model of pregnancy are also utilized as they more closely resemble the endocrine control of human pregnancy with progesterone levels in pregnancy maintained by the placenta as opposed to the ovaries, which is observed in pregnant rats.
Pregnant Hartley guinea pigs arrived at our facilities at 31-35 days gestation and housed in pairs, with free access to food and water and also maintained on a constant 12-hour light-dark cycle. The animals were euthanized with a combination of xylazine (Gemini; Burns Veterinary Supply Inc, Rockville Center, N.Y.) and ketamine HCL (Ketaset; Fort Dodge Laboratories Inc, Fort Dodge, Iowa). All procedures were approved by the Animal Care and Use Committee of the St. Joseph's Hospital and Medical Center in Phoenix, Ariz.
Pregnant guinea pigs (N=4-6 per group) were allocated into 4 groups (Vehicle (v) only, TMG only, PGE2 only, PGE2+TMG). PGE2 administration (3 mg/day s.c, v=saline) began daily on day 46 to day 47 of gestation. TMG administration (4 mg/day s.c v=BB:CO) began daily on day 44 until day 47 of gestation. All guinea pigs were sacrificed on day 48.

For data set [2], the system named is rat pups of treated pregnant rats. The experiment in a line: Sex of pups / fetuses of TMG-treated pregnant rats. In kind it is in vivo. The protocol: To determine the effects of TMG on progeny sex ratios, pregnant rats (N=9 per group) were treated daily beginning on day 13 of gestation with TMG (in benzyl benzoate+castor oil, vehicle) or with vehicle only. […] Pups were then placed with surrogate mother also on day 22 of gestation whose pups were sacrificed.
As described, the sex of the pups was evaluated 21 days post-partum by examining external genitalia as well as distance between rectum and genitalia.

For data set [3], the system named is MMP expression (MMP-1, MMP-3) in cultured stromal cells. The following applies: cited from earlier work.
For data set [4], the system named is estrogenic activity in the uterine endometrium. Conditions: in vivo; cited from earlier work.
For a further data set, the target named is T1, glucocorticoid receptor (Homo sapiens, UniProt P04150).
T1 sequence (P04150 1-777): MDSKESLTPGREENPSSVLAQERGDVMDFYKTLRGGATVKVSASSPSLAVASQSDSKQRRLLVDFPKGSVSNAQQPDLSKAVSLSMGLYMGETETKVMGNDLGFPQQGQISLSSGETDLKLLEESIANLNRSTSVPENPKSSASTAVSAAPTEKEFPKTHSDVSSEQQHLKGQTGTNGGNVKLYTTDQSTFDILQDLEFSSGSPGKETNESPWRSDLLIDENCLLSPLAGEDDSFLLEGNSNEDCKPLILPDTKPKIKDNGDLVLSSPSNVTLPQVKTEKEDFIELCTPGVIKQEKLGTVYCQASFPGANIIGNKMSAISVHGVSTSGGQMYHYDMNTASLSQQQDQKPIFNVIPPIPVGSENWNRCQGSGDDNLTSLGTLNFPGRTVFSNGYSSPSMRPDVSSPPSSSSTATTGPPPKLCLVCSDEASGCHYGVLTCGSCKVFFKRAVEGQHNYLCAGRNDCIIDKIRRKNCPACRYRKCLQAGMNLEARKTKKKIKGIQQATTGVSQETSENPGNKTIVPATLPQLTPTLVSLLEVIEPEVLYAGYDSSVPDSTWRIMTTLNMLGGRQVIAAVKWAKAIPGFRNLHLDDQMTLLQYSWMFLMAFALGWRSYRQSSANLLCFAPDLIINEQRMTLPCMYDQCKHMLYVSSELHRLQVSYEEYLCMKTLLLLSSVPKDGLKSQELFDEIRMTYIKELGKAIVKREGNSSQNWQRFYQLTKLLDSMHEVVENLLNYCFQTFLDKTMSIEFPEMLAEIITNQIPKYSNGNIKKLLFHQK
Conditions: cited from earlier work.

Data set [5] concerns mineralocorticoid receptors (MR). Conditions: cited from earlier work.
The target of a further data set is T2, estrogen receptor (Homo sapiens, UniProt P03372).
T2 sequence (P03372 1-595): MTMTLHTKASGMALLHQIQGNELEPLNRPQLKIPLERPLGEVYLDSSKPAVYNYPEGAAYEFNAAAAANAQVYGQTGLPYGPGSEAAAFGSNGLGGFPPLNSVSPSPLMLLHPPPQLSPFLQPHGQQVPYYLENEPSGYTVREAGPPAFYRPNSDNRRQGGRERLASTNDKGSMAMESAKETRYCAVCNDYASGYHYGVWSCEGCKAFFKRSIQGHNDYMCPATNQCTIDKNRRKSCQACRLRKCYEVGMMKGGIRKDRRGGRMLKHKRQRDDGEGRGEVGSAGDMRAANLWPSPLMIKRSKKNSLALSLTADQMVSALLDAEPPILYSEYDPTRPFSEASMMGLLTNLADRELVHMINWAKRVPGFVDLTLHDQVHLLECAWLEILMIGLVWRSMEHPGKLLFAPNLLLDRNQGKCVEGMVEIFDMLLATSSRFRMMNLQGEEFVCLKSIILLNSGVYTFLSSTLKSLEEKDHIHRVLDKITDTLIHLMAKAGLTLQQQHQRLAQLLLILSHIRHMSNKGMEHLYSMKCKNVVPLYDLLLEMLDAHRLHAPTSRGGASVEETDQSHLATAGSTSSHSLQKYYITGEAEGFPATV
Conditions: cited from earlier work.

Regarding `C[C@H](O)C(=O)[C@@]1(C)CC[C@H]2[C@@H]3CCC4=CC(=O)CCC4=C3CC[C@@]21C` [TMG, trimegestone], the “guinea pigs delivered (preterm) / treated, substance alone” value in data set [1] (TMG 4 mg/day s.c. days 44-47, PGE2 3 mg/day days 46, 47) is listed as 1/4. Also, the “guinea pigs delivered (preterm) / treated, TMG plus PGE2” value in data set [1] (TMG 4 mg/day s.c. days 44-47 and PGE2 3 mg/day days 46-47) is “None and 2/6”. In addition, the “masculinizing or feminizing effects on the fetuses” value in data set [2] (fetuses of treated rats, treatment from day 13 of pregnancy) was “lacks masculinization or feminization effects; also recorded: no masculinizing or feminizing effects”. For the same molecule, in data set [2] (pregnant rats treated from day 13 of gestation, N=9), the “ratio of male to female pups versus vehicle control” value is recorded as “no significant difference; also recorded: non-significant differences”. Further, the “effect on MMP expression compared to P4” value in data set [3] is recorded as “differential effect on MMP expression; also recorded: tighter control of MMP expression”. Further, the “antagonism of estrogenic activity in the uterine endometrium versus reference progestins” value in data set [4] is “highest level of estrogenic activity antagonism; also recorded: most potent antagonist of estrogenic activity”. Besides, the “affinity to the glucocorticoid receptor” value on glucocorticoid receptor was “low affinity”. Also, in data set [5], the “affinity to the mineralocorticoid receptor” value is “low affinity” and the “relative binding affinity (RBA) for TMG-mineralocorticoid receptors (MR)” value is 42. Besides, the “affinity for the estrogen receptor” value on estrogen receptor was “no measurable affinity”.
